{"source": "patent US20030005484A1", "about": "“Microbiocidal and pesticidal aromatic aldehydes” (ProGuard, Inc., priority 1994, published 2003)", "key": {"phylloxera-biotype A": {"system": "phylloxera-biotype A", "test": "greenhouse Merlot vines infested with phylloxera, leaf spray, disease rating of roots", "type": "in vivo, Daktulosphaira vitifoliae", "excerpt": "For greenhouse tests, one year old potted V. vinifera cultivar merlot plants were used that had been obtained from Foundation Plant Material Service, University of California, Davis. The plants were potted in 10 cm diameter pots and were infested with phylloxera 5 weeks prior to treatment. At the time of spraying with a treatment solution, plant pots were placed in a plastic bag so that chemical runoff from the leaf sprays would not drip into the soil. The plants were sprayed to runoff with a household 1 liter-capacity plastic spray bottle. Plants were allowed to air dry outside and then replaced in the greenhouse. At intervals thereafter, the roots were separated from the potting mix and total phylloxera population estimated."}, "[1]": {"system": "leafhoppers (western grape leafhopper and Virginia creeper leafhopper nymphs)", "test": "leafhoppers on grapevines, 1% and 2% spray", "type": "in vivo", "details": "for mean number of leafhoppers per leaf: one day after treatment, across cultivars, control 26.53", "protocol": "Treatment of leafhoppers (western grape leafhopper (WGL) and Virginia creeper leafhopper nymphs(VCLH)) on grapevines with cinnamic aldehyde was conducted to evaluate the protective effect of cinnamic aldehyde in different concentrations against leafhoppers on plants. A single application of 1% or 2% cinnamic aldehyde in 0.1% Tween-20 was sprayed onto the leaves of grapevines of different grape varietals (Cabernet Sauvignon, Chardonnay, Emerald Reisling and Pinot Noir) with a backpack CO2 powered sprayer at the field equivalent rate of approximately 150 gal./acre (0.5 gal. per treatment plot). Coverage on the bottom of grape leaves, where most leafhopper nymphs feed, ranged from 70%-80%. The number of leafhoppers on the leaves was counted prior to spraying and 1 day after spraying. Leafhopper numbers on grape vines were assessed by sampling 2 leaves from each of 3 grape vines per treatment (with a single vine buffer between each treatment), for which 2-3 replicates per treatment were examined. Control plants were untreated. Both concentrations of cinnamic aldehyde reduced the mean number of leafhoppers per leaf as compared to the control. The mean number of leafhoppers was defined as the sum of WGL plus VCLH per leaf."}, "Spider Mites": {"system": "Spider Mites", "test": "spider mites on cabernet sauvignon grapevines, 0.3% spray", "type": "in vivo", "details": "0.3% CNMA; two days after spraying; untreated 17.9", "protocol": "The effect of 0.3% cinnamic aldehyde on leafhoppers and spider mites on grapevine leaves was examined. 30% cinnamic aldehyde was diluted 1:100 in water and sprayed one time on a 1 acre block of cabernet sauvignon grapevines in a vineyard using a 300 gal Pul-Blast rsprayer at 160 psi. 120 gal. were applied to one acre of vineyard. As a control, a one-acre block remained untreated. Blocks were pseudo-replicated so as to obtain an indication of the reliability of the treatment. Prior to treatment mites on leaves were pre-counted using a dissecting microscope. Leafhopper numbers also were determined in the field prior to treatment. Two days after spraying, two leaves, one from the basal portion and one from the proximal portion of the vine were examined from 16 vines from 2 rows for each treatment. Leaf samples also were taken from both sides of the vines (north and south) to include variation due to vine exposure. […]"}, "grape phylloxera": {"system": "grape phylloxera", "test": "grape phylloxera adult and nymphal mortality, root dip", "type": "in vivo, Daktulosphaira vitifoliae", "details": "for mortality of adults and nymphs: root dip, 5 days", "protocol": "Approximately twenty four eggs of phylloxera were allowed to develop for up to 30 days on standard excised grape roots. At around 30 days, some of the insects were nymphs while others were adults. New eggs were removed during the process. Insect infected roots were submerged into a test formula for 6 seconds then set aside to dry in the air. The percentage of live insects, as defined by growth, oviposition or limb movement, was determined after 5 days. An insect was considered dead if it abandoned its feed site.\nIn an initial test, doses of 20,000 ppm cinnamic aldehyde in water (i.e., 2% cinnamic aldehyde) with various additives were evaluated. Cinnamic aldehyde without any additives produced 83.3% mortality. With-1% Tween 80 added, 91.7% mortality was seen. With 6% NaHCO3 added to a solution of 2% cinnamic aldehyde, 91.7% mortality was seen. With 1% Tween 80 and 6% NaHCO3 added to a solution of 2% cinnamic aldehyde, 100% mortality was seen. Water with no additives produced no mortality, while a positive control solution of 250 ppm malathion in water gave 100% mortality.\nFor nymph and adult tests, eggs were placed on excised root pieces similar to those used for rearing purposes and these were sealed in Petri dishes and held at 24° C. for 18-25 days to allow insects to hatch, initiate feeding sites and develop. At about this time about half the population was in the adult stage. Prior to testing, the population on each root was determined as well as the developmental stage of each insect. Eggs were removed. These root pieces were then dipped for 5 sec into test solutions and allowed to air dry before they were returned to Petri dishes, sealed and placed back in the temperature chamber at 24° C. Mortality was determined after 5 days. Insects were considered dead if they appeared black or desiccated and if they had not developed since the pre-treatment reading and had laid no or few new eggs."}, "phylloxera Biotype A": {"system": "phylloxera Biotype A", "test": "planter / field box vines, leaf spray, phylloxera population on roots", "type": "in vivo, Daktulosphaira vitifoliae", "details": "for Number of phylloxera per root piece: Merlot, two weeks; for reduction of population versus control vines: field planter boxes, after two weeks; for phylloxera population, Mean ± 95% CI: boxed 1 year old Merlot", "excerpt": "Planter boxes are wooden boxes with a top surface area of 1.5 m×1 m and are 1.5 m tall. They were filled with a clay-loam soil and each was planted to 4 one-year old Merlot plants in early spring, 1995. They were infested with biotype A phylloxera in May, 1995 by placing about 150 eggs adjacent to an attached root under the soil surface. The plants were irrigated weekly with a fine mist. Treatments were made at various times in July and August 1995 using the household 1 liter-capacity plastic spray bottles, spraying to runoff. At one or two weeks after treatment, plants root systems were removed from the soil and total phylloxera populations were estimated."}, "[2]": {"system": "thrips insects (Frankliniella occidentalis)", "test": "residual activity on filter paper against thrips", "type": "in vivo", "details": "residue on filter paper, rehydrated 24 and 72 hours after spraying; thrips mortality after one hour", "protocol": "In the first experiment, two ml of two concentrations of CNMA (0.3 and 1%) were sprayed on filter paper (Whatman). As a negative control, two ml of water also were sprayed on filter paper. Twenty-four hours later, two ml of water were sprayed on treatment and control filter paper, which were then dried for 30 min. Approximately 30 thrips insects (Frankliniella occidentalis) were introduced and the number of F. occidentalis were observed after one hour. Mean mortality was calculated for each treatment.\nAfter 72 hours, the treatment filter papers were flipped over and only the negative control filter paper and the filter paper treated with 1% CNMA were sprayed with 2 ml of water and allowed to dry for 30 minutes. Approximately 30 thrips were introduced to the two treated filter papers and after one hour the number of dead F. occidentalis were observed and the mean mortality calculated for each treatment. A similar assay was conducted using a-hexyl cinnamaldehyde. Mean mortality was higher for rehydrated filter papers compared to non-rehydrated filter papers over time."}}, "note": "Values joined by “and” are separate entries in the source; they are usually repeats but may differ in a detail not shown here. Equal values may be shown once.", "data": [{"compound": "O=C/C=C/c1ccccc1", "note": "[cinnamic aldehyde]", "values": [{"measurement": "Average disease rating (0-4)", "setting": "phylloxera-biotype A; CNMA 10,000 ppm in 6% NaHCO3 and 2% Tween-80, leaves to run-off, week 1 (7 day evaluation)", "result": "0^2(3)^3 and 0"}, {"measurement": "Average disease rating (0-4)", "setting": "phylloxera-biotype A; Experiment 2, 2500 ppm CNMA leaf treatment, 1 day post treatment", "result": "4 (3)"}, {"measurement": "Average disease rating (0-4)", "setting": "phylloxera-biotype A; Experiment 2, 2500 ppm CNMA leaf treatment, 2 days post treatment", "result": "0.3(3)"}, {"measurement": "Average disease rating (0-4)", "setting": "phylloxera-biotype A; Experiment 2, 2500 ppm CNMA leaf treatment, 7 days post treatment", "result": "0.3(3)"}, {"measurement": "insects on roots after leaf spray", "setting": "phylloxera-biotype A; one-year-old greenhouse Merlot vines sprayed to run-off, after two weeks", "result": "disappeared"}, {"measurement": "mean number of leafhoppers per leaf", "setting": "[1]; 1% in 0.1% Tween-20", "result": 4.33, "unit": "leafhoppers per leaf"}, {"measurement": "mean number of leafhoppers per leaf", "setting": "[1]; 2% in 0.1% Tween-20", "result": 2.13, "unit": "leafhoppers per leaf"}, {"measurement": "MEAN LEAFHOPPERS/LEAF", "setting": "[1]; Cabernet, 1% CNMA, control 15.33", "result": 3.0}, {"measurement": "MEAN LEAFHOPPERS/LEAF", "setting": "[1]; Chardonnay, 2% CNMA, control 23.75", "result": 3.83}, {"measurement": "MEAN LEAFHOPPERS/LEAF", "setting": "[1]; Emerald Reisling, 1% CNMA, control 51.12", "result": 5.67}, {"measurement": "MEAN LEAFHOPPERS/LEAF", "setting": "[1]; Pinot Noir, 2% CNMA, control 19.44", "result": 1.0}, {"measurement": "MITES/LEAF", "setting": "Spider Mites", "result": 3.27}, {"measurement": "mortality of adults and nymphs", "setting": "grape phylloxera; 2% cinnamic aldehyde with 1% Tween 80", "result": 91.7, "unit": "%"}, {"measurement": "mortality of adults and nymphs", "setting": "grape phylloxera; 2% cinnamic aldehyde with 1% Tween 80 and 6% NaHCO3", "result": 100, "unit": "%"}, {"measurement": "mortality of adults and nymphs", "setting": "grape phylloxera; 2% cinnamic aldehyde with 6% NaHCO3", "result": 91.7, "unit": "%"}, {"measurement": "mortality at 20000 ppm", "setting": "grape phylloxera; Daktulosphaira vitifoliae, 120 h, 2% cinnamic aldehyde (20,000 ppm) in water, no additives, roots submerged 6 seconds, read after 5 days, read-out: mortality of adults and nymphs", "result": 83.3, "unit": "%"}, {"measurement": "Number of phylloxera per root piece", "setting": "phylloxera Biotype A; 1 K CNMA, one value per plant", "result": "133 and 72 and 95"}, {"measurement": "Number of phylloxera per root piece", "setting": "phylloxera Biotype A; 20 K (20,000 ppm CNMA in 6% NaHCO3 and 2% Tween-80)", "result": 16}, {"measurement": "reduction of population versus control vines", "setting": "phylloxera Biotype A; 1,000 ppm leaf spray", "result": 92, "unit": "%"}, {"measurement": "reduction of population versus control vines", "setting": "phylloxera Biotype A; 10,000 ppm leaf spray", "result": 95, "unit": "%"}, {"measurement": "phylloxera population, Mean ± 95% CI", "setting": "phylloxera Biotype A; foliage to runoff, 1000 ppm, Exp. 1", "result": "100 ± 31"}, {"measurement": "phylloxera population, Mean ± 95% CI", "setting": "phylloxera Biotype A; foliage to runoff, 1000 ppm, Exp. 2", "result": "58 ± 17"}, {"measurement": "phylloxera population, Mean ± 95% CI", "setting": "phylloxera Biotype A; foliage to runoff, 10,000 ppm, Exp. 1", "result": "60 ± 37"}, {"measurement": "phylloxera population, Mean ± 95% CI", "setting": "phylloxera Biotype A; foliage to runoff, 10,000 ppm, Exp. 2", "result": "43 ± 56"}, {"measurement": "residual activity", "setting": "[2]", "result": "have residual activity"}]}]}
